Legend:
Met kinase [1] = target: T1, Met kinase (Homo sapiens, UniProt P08581); test: Met kinase inhibition, flashplate method (enzyme); format: biochemical; design: 6His (N); purchased Upstate 14-526; host or cells: Sf21 insect cells (S. frugiperda), baculovirus
Protocol: The test plates used are 96-well Flashplate® microtitre plates from Perkin Elmer (Cat. No SMP200). The components of the kinase reaction described below are pipetted into the assay plate. The Met kinase and the substrate poly Ala-Glu-Lys-Tyr, (pAGLT, 6:2:5:1), are incubated for 3 hrs at room temperature with radioactively labelled ^33P-ATP in the presence and absence of test substances in a total volume of […]. The reaction is terminated using 150 μl of a 60 mM EDTA solution. After incubation for a further 30 min at room temperature, the supernatants are filtered off with suction, and the wells are washed three times with 200 μl of 0.9% NaCl solution each time. The measurement of the bound radioactivity is carried out by means of a scintillation measuring instrument (Topcount NXT, Perkin-Elmer).
The full value used is the inhibitor-free kinase reaction. This should be approximately in the range 6000-9000 cpm. The pharmacological zero value used is staurosporin in a final concentration of 0.1 mM. The inhibitory values (IC50) are determined using the RS1_MTS program.
30 μl of assay buffer 10 μl of substance to be tested in assay buffer with 10% of DMSO 10 μl of ATP (final concentration 1 μM cold, 0.35 μCi of ^33P-ATP) 50 μl of Met kinase/substrate mixture in assay buffer; • (10 ng of enzyme/well, 50 ng of pAGLT/well)

Met kinase [2] = target: T1, Met kinase; test: Met kinase inhibition (cell); format: cell-based

T1 sequence (P08581 25-1390): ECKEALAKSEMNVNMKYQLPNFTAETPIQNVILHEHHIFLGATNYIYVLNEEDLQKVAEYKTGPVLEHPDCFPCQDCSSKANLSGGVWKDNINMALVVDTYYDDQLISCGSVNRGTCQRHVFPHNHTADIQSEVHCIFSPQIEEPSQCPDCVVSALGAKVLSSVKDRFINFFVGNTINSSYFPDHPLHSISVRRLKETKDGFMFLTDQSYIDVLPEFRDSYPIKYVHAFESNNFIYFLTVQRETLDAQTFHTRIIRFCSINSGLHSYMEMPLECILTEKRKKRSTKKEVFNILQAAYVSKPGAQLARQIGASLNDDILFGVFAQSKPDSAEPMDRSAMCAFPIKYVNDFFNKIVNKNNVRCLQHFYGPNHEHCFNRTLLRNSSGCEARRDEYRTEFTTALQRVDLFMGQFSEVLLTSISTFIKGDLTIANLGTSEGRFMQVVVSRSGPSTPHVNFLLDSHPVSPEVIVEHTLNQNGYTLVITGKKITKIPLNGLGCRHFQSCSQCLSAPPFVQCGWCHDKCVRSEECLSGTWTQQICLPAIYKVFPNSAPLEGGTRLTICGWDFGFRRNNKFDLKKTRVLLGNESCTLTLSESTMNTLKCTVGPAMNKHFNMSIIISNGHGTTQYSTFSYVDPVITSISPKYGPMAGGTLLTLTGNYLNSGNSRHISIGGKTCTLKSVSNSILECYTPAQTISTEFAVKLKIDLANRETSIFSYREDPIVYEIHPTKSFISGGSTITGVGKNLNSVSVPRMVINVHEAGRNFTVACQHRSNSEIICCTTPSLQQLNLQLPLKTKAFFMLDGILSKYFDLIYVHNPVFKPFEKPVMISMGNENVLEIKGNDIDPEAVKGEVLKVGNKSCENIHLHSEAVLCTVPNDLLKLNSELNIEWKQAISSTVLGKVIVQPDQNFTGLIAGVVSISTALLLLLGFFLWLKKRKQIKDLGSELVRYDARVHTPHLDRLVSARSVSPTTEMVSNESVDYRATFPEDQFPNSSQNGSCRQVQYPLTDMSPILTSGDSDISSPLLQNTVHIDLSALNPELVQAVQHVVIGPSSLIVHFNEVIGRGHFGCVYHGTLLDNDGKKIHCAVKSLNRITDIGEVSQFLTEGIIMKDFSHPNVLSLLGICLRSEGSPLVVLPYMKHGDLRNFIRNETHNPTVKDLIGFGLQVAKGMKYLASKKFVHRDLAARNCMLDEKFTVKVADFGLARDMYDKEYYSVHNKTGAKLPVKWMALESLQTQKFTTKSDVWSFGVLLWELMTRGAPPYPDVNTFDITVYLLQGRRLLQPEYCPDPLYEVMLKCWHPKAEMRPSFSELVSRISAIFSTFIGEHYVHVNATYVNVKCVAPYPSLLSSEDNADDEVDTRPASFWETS

| Structure (SMILES) | IC50 (Met kinase [1]) [µM] | melting point [°C] | IC50 (Met kinase [2]) [µM] |
| --- | --- | --- | --- |
| N#Cc1ccc2[nH]c(-c3ccc(F)cc3)c(-c3ccncc3)c2n1 [Compound A20] | > 10 | – | – |
| N#Cc1ccc2[nH]c(-c3cncnc3)c(-c3cccc(Cl)c3)c2n1 [Compound A62, 3-(3-Chlorophenyl)-2-pyrimidin-5-yl-1H-pyrrolo[3,2-b]pyridine-5-carbonitrile] | > 10 | – | – |
| N#Cc1ccc2[nH]c(-c3cncnc3)c(-c3ccc(F)cc3)c2n1 [Compound A14, 3-(4-fluorophenyl)-2-(pyrimidin-5-yl)-1H-pyrrolo[3,2-b]pyridine-5-carbonitrile] | – | 230 to 232 | – |
| NC(=O)c1ccc2[nH]c(-c3ccncc3)c(-c3cccc(Cl)c3)c2n1 [Compound A60] | 0.1 to 10 | – | > 10 |
| O=C(NCCN1CCOCC1)c1ccc2[nH]c(-c3ccncc3)c(-c3cccc(Cl)c3)c2n1 [Compound A61] | > 10 | – | > 10 |
| N#Cc1ccc2[nH]c(-c3ccncc3)c(-c3cccc(F)c3)c2n1 [Compound A58] | 0.1 to 10 | – | > 10 |
| N#Cc1ccc2[nH]c(-c3ccncc3)c(-c3ccc(F)cc3)c2n1 | – | 230 | – |
| O=C(O)c1ccc2[nH]c(-c3ccncc3)c(-c3cccc(Cl)c3)c2n1 [Compound A59] | 0.1 to 10 | – | > 10 |
